Experimental findings from ChEMBL document CHEMBL3244292, “Imidazo[4,5-f]quinolines. 2. A series of 9-(substituted amino)imidazo[4,5-f]quinolines as antitapeworm agents” (1977) are described below.

Each structure is given as a SMILES string. Calls of active or inactive are those of the source. No cut-off for these calls is given here.

In one test the test system is Rodentolepis nana. The test can be described thus: Anthelmintic activity against Hymenolepis nana infected in mouse assessed as reduction in worm burden at 300 mg/kg administered bid for 3 days relative to control. The arrangement: scale not given: the % may be the effect or the level left. Format: functional.
Consider `Cc1ccc(Cl)c(Nc2cc(C)nc3ccc4nc[nH]c4c23)c1`, for which the Activity was found to be 98%.
Same read-out and setting: to `COc1ccc(Nc2cc(C)nc3ccc4nc(C)[nH]c4c23)cc1` belongs 100%; to `Cc1cc(Nc2ccc(/N=N\c3ccccc3)cc2)c2c(ccc3nc[nH]c32)n1`, 100%.
The same measure, in the same setting: to `Cc1cc(Nc2ccccc2-c2ccccc2)c2c(ccc3nc[nH]c32)n1` belongs 100%; to `CCCC(=O)c1ccc(Nc2cc(C)nc3ccc4nc[nH]c4c23)cc1`, 100%.
As to `Cc1cc(Nc2ccc(N3CCN(C)CC3)cc2)c2c(ccc3nc[nH]c32)n1`, the Activity is listed as 80%.
For `Cc1cc(Nc2cccc(Nc3ccc(N4CCCCC4)nc3)c2)c2c(ccc3nc[nH]c32)n1`, the Activity came out at 100%.
`Cc1cc(Nc2ccc3c(c2)OCO3)c2c(ccc3nc[nH]c32)n1`: the Activity turned out to be 100%.
With `Cc1cc(Nc2cccc(Nc3ccccc3)c2)c2c(ccc3nc[nH]c32)n1`, the Activity is on record as 81%.
In the case of `COc1ccc(CNc2cccc(Nc3cc(C)nc4ccc5nc[nH]c5c34)c2)cc1`, the Activity worked out at 60%.
Take `CCCCOc1ccc(Nc2cc(C)nc3ccc4[nH]cnc4c23)cc1`: the Activity is on record as 100%.
Regarding `CSc1ccccc1Nc1cc(C)nc2ccc3nc[nH]c3c12`, the Activity is recorded as 93%.
In the case of `CCN(CC)CCOc1ccc(Nc2cc(C)nc3ccc4nc[nH]c4c23)cc1`, the Activity amounted to 100%.
Take `Cc1cc(Nc2ccc(C)c([N+](=O)[O-])c2)c2c(ccc3nc[nH]c32)n1`: the Activity was 83%.
On the same count and under the same terms, to `Cc1cc(Nc2cccc(C(F)(F)F)c2)c2c(ccc3nc[nH]c32)n1` belongs 100%.
Same read-out and setting: to `Cc1cc(Nc2ccc(N3CCN(C)CC3)c(Cl)c2)c2c(ccc3nc[nH]c32)n1` belongs 100%; to `Cc1cc(Nc2cccc(Nc3ccc(N4CCN(C)CC4)nc3)c2)c2c(ccc3nc[nH]c32)n1`, 64%; to `CCCCc1ccc(Nc2cc(-c3ccccc3)nc3ccc4nc[nH]c4c23)cc1`, 69%.
As for `CCCCc1ccc(Nc2cc(C)nc3ccc4[nH]cnc4c23)cc1`, the Activity amounted to 100%.
With `Cc1ccc(Nc2cc(C)nc3ccc4nc[nH]c4c23)cc1`, the Activity worked out at 100%.

Another test has as its system Rodentolepis nana. The test is described as follows: Anthelmintic activity against Hymenolepis nana infected in mouse assessed as reduction in worm burden at 100 mg/kg administered bid for 3 days relative to control. Format: functional.
Regarding `Cc1ccc(Cl)c(Nc2cc(C)nc3ccc4nc[nH]c4c23)c1`, the result was inactive.
Regarding `COc1ccc(Nc2cc(C)nc3ccc4nc(C)[nH]c4c23)cc1`, the outcome was inactive.
Take `CCCCOc1cc(Nc2cc(C)nc3ccc4nc[nH]c4c23)c(OCCCC)cc1Cl`: the Activity is given as 100%.
Regarding `Cc1cc(Nc2ccc(/N=N\c3ccccc3)cc2)c2c(ccc3nc[nH]c32)n1`, the outcome was inactive.
On the same count and under the same terms, for `Cc1cc(Nc2ccccc2-c2ccccc2)c2c(ccc3nc[nH]c32)n1` the value was “inactive”.
Regarding `Cc1cc(Nc2ccc(N3CCN(Cc4ccccc4)CC3)c(Cl)c2)c2c(ccc3nc[nH]c32)n1`, the Activity came to 100%.
Turning to `CCCC(=O)c1ccc(Nc2cc(C)nc3ccc4nc[nH]c4c23)cc1`, the result was inactive.
Take `Cc1cc(Nc2ccc(N3CCN(C)CC3)cc2)c2c(ccc3nc[nH]c32)n1`: the outcome was inactive.
The same measure, in the same setting: to `Cc1cc(Nc2cccc(Nc3ccc(N4CCCCC4)nc3)c2)c2c(ccc3nc[nH]c32)n1` belongs “inactive”; to `Cc1cc(Nc2ccc3c(c2)OCO3)c2c(ccc3nc[nH]c32)n1`, “inactive”.
For `Cc1cc(Nc2cccc(Nc3ccccc3)c2)c2c(ccc3nc[nH]c32)n1`, the result was inactive.
As to `COc1ccc(CNc2cccc(Nc3cc(C)nc4ccc5nc[nH]c5c34)c2)cc1`, the outcome was inactive.
On to `CCCCCCOc1ccc(C(=N)N(CCCC)CCCC)c2ccccc12` [BUNAMIDINE], for which the Activity was 100%.
As to `CCCCOc1ccc(Nc2cc(C)nc3ccc4[nH]cnc4c23)cc1`, the result was inactive.
On the same count and under the same terms, to `CCCCOc1ccc(Nc2cc(C)nc3ccc4nc[nH]c4c23)cc1OCCCC` belongs 100%.
On to `Cc1cc(Nc2ccc(OCCC(C)C)c(OCCC(C)C)c2)c2c(ccc3nc[nH]c32)n1`, for which the Activity is 100%.
With `CSc1ccccc1Nc1cc(C)nc2ccc3nc[nH]c3c12`, the outcome was inactive.
Turning to `CCOc1ccc(OCC)c(Nc2cc(C)nc3ccc4nc[nH]c4c23)c1`, the Activity worked out at 100%.
Consider `CCN(CC)CCOc1ccc(Nc2cc(C)nc3ccc4nc[nH]c4c23)cc1`, for which the outcome was inactive.
As to `Cc1cc(Nc2ccc(C)c([N+](=O)[O-])c2)c2c(ccc3nc[nH]c32)n1`, the outcome was inactive.
On the same count and under the same terms, to `COc1ccc(Nc2cccc(Nc3cc(C)nc4ccc5nc[nH]c5c34)c2)cn1` belongs 100%; to `CCOc1ccc(Nc2cc(C)nc3ccc4nc[nH]c4c23)cc1OCC`, 100%; to `Cc1cc(Nc2cccc(C(F)(F)F)c2)c2c(ccc3nc[nH]c32)n1`, “inactive”.
`Cc1cc(Nc2ccc(OCC(C)C)c(OCC(C)C)c2)c2c(ccc3nc[nH]c32)n1`: the Activity stood at 100%.
On to `Cc1cc(Nc2ccc(-c3ccccc3)cc2)c2c(ccc3nc[nH]c32)n1`, for which the Activity amounted to 100%.
In the case of `Cc1cc(Nc2ccc(N3CCN(C)CC3)c(Cl)c2)c2c(ccc3nc[nH]c32)n1`, the result was inactive.
For `CCOc1cc(OCC)c(OCC)cc1Nc1cc(C)nc2ccc3nc[nH]c3c12`, the Activity was 89%.
With `CCOc1ccc(OC)c(Nc2cc(C)nc3ccc4nc[nH]c4c23)c1`, the Activity is 100%.
Same read-out and setting: to `Cc1cc(Nc2cccc(Nc3ccc(N4CCN(C)CC4)nc3)c2)c2c(ccc3nc[nH]c32)n1` belongs “inactive”.
On the same count and under the same terms, for `CCCCc1ccc(Nc2cc(-c3ccccc3)nc3ccc4nc[nH]c4c23)cc1` the value was “inactive”; for `COc1cc(Nc2cc(C)nc3ccc4nc[nH]c4c23)c(OC)cc1Cl`, 100%; for `CC(=O)c1ccc(Nc2cc(C)nc3ccc4nc[nH]c4c23)cc1`, 100%.
On to `CCCC(C)Oc1ccc(Nc2cc(C)nc3ccc4nc[nH]c4c23)cc1OC(C)CCC` (stereo unspecified), for which the Activity is recorded as 100%.
Consider `CCCCc1ccc(Nc2cc(C)nc3ccc4[nH]cnc4c23)cc1`, for which the outcome was inactive.
Regarding `CCOc1cc(Nc2cc(C)nc3ccc4nc[nH]c4c23)c(OCC)cc1Cl`, the Activity is 100%.
For the molecule `Cc1ccc(Nc2cc(C)nc3ccc4nc[nH]c4c23)cc1`, the result was inactive.

The next test has as its system Rodentolepis nana. The test is described as follows: Anthelmintic activity against Hymenolepis nana infected in mouse assessed as reduction in worm burden at 10 mg/kg administered bid for 3 days relative to control. Format: functional, organism-based. The arrangement: dose 10 mg/kg.
Turning to `CCCCOc1cc(Nc2cc(C)nc3ccc4nc[nH]c4c23)c(OCCCC)cc1Cl`, the outcome was inactive.
The same measure, in the same setting: for `Cc1cc(Nc2ccc(N3CCN(Cc4ccccc4)CC3)c(Cl)c2)c2c(ccc3nc[nH]c32)n1` the value was “inactive”; for `CCCCCCOc1ccc(C(=N)N(CCCC)CCCC)c2ccccc12` [BUNAMIDINE], “inactive”.
On to `Cc1cc(Nc2ccc(OCCC(C)C)c(OCCC(C)C)c2)c2c(ccc3nc[nH]c32)n1`, for which the outcome was inactive.
In the case of `Cc1cc(Nc2ccc(OCC(C)C)c(OCC(C)C)c2)c2c(ccc3nc[nH]c32)n1`, the outcome was inactive.
On to `COc1cc(Nc2cc(C)nc3ccc4nc[nH]c4c23)c(OC)cc1Cl`, for which the result was inactive.
On to `CC(=O)c1ccc(Nc2cc(C)nc3ccc4nc[nH]c4c23)cc1`, for which the result was inactive.
Regarding `CCCC(C)Oc1ccc(Nc2cc(C)nc3ccc4nc[nH]c4c23)cc1OC(C)CCC` (stereo unspecified), the outcome was inactive.

The test system of another test is Rodentolepis nana. The test can be described thus: Anthelmintic activity against Hymenolepis nana infected in mouse assessed as reduction in worm burden at 25 mg/kg administered bid for 3 days relative to control. Format: functional. The arrangement: scale not given: the % may be the effect or the level left.
As for `CCCCOc1cc(Nc2cc(C)nc3ccc4nc[nH]c4c23)c(OCCCC)cc1Cl`, the Activity was found to be 74%.
Consider `Cc1cc(Nc2ccc(N3CCN(Cc4ccccc4)CC3)c(Cl)c2)c2c(ccc3nc[nH]c32)n1`, for which the Activity was determined as 77%.
For the molecule `CCCCCCOc1ccc(C(=N)N(CCCC)CCCC)c2ccccc12` [BUNAMIDINE], the Activity is on record as 30%.
Consider `CCCCOc1ccc(Nc2cc(C)nc3ccc4nc[nH]c4c23)cc1OCCCC`, for which the result was inactive.
As to `Cc1cc(Nc2ccc(OCCC(C)C)c(OCCC(C)C)c2)c2c(ccc3nc[nH]c32)n1`, the Activity came out at 67%.
As to `CCOc1ccc(OCC)c(Nc2cc(C)nc3ccc4nc[nH]c4c23)c1`, the outcome was inactive.
`COc1ccc(Nc2cccc(Nc3cc(C)nc4ccc5nc[nH]c5c34)c2)cn1`: the outcome was inactive.
Regarding `CCOc1ccc(Nc2cc(C)nc3ccc4nc[nH]c4c23)cc1OCC`, the outcome was inactive.
With `Cc1cc(Nc2ccc(OCC(C)C)c(OCC(C)C)c2)c2c(ccc3nc[nH]c32)n1`, the Activity is 77%.
On the same count and under the same terms, to `Cc1cc(Nc2ccc(-c3ccccc3)cc2)c2c(ccc3nc[nH]c32)n1` belongs “inactive”; to `CCOc1cc(OCC)c(OCC)cc1Nc1cc(C)nc2ccc3nc[nH]c3c12`, “inactive”.
Consider `CCOc1ccc(OC)c(Nc2cc(C)nc3ccc4nc[nH]c4c23)c1`, for which the outcome was inactive.
For `COc1cc(Nc2cc(C)nc3ccc4nc[nH]c4c23)c(OC)cc1Cl`, the Activity was determined as 100%.
In the case of `CC(=O)c1ccc(Nc2cc(C)nc3ccc4nc[nH]c4c23)cc1`, the Activity came out at 56%.
As to `CCCC(C)Oc1ccc(Nc2cc(C)nc3ccc4nc[nH]c4c23)cc1OC(C)CCC` (stereo unspecified), the Activity was determined as 92%.
Turning to `CCOc1cc(Nc2cc(C)nc3ccc4nc[nH]c4c23)c(OCC)cc1Cl`, the outcome was inactive.

A further test has as its system Rodentolepis nana. The test can be described thus: Anthelmintic activity against Hymenolepis nana infected in mouse assessed as reduction in worm burden at 50 mg/kg administered bid for 3 days relative to control. Format: functional. On the set-up: scale not given: the % may be the effect or the level left.
Regarding `CCCCOc1cc(Nc2cc(C)nc3ccc4nc[nH]c4c23)c(OCCCC)cc1Cl`, the Activity came to 84%.
On the same count and under the same terms, to `Cc1cc(Nc2ccc(N3CCN(Cc4ccccc4)CC3)c(Cl)c2)c2c(ccc3nc[nH]c32)n1` belongs 100%.
As for `CCCCCCOc1ccc(C(=N)N(CCCC)CCCC)c2ccccc12` [BUNAMIDINE], the Activity is on record as 59%.
`CCCCOc1ccc(Nc2cc(C)nc3ccc4nc[nH]c4c23)cc1OCCCC`: the Activity was 95%.
On the same count and under the same terms, for `Cc1cc(Nc2ccc(OCCC(C)C)c(OCCC(C)C)c2)c2c(ccc3nc[nH]c32)n1` the value was 100%; for `CCOc1ccc(OCC)c(Nc2cc(C)nc3ccc4nc[nH]c4c23)c1`, 100%.
The same measure, in the same setting: to `COc1ccc(Nc2cccc(Nc3cc(C)nc4ccc5nc[nH]c5c34)c2)cn1` belongs 94%.
On to `CCOc1ccc(Nc2cc(C)nc3ccc4nc[nH]c4c23)cc1OCC`, for which the Activity was 84%.
Consider `Cc1cc(Nc2ccc(OCC(C)C)c(OCC(C)C)c2)c2c(ccc3nc[nH]c32)n1`, for which the Activity came to 78%.
Consider `Cc1cc(Nc2ccc(-c3ccccc3)cc2)c2c(ccc3nc[nH]c32)n1`, for which the Activity was determined as 94%.
In the case of `CCOc1cc(OCC)c(OCC)cc1Nc1cc(C)nc2ccc3nc[nH]c3c12`, the Activity stood at 80%.
Regarding `CCOc1ccc(OC)c(Nc2cc(C)nc3ccc4nc[nH]c4c23)c1`, the Activity was 89%.
Turning to `COc1cc(Nc2cc(C)nc3ccc4nc[nH]c4c23)c(OC)cc1Cl`, the Activity was determined as 72%.
Regarding `CC(=O)c1ccc(Nc2cc(C)nc3ccc4nc[nH]c4c23)cc1`, the Activity is given as 100%.
With `CCCC(C)Oc1ccc(Nc2cc(C)nc3ccc4nc[nH]c4c23)cc1OC(C)CCC` (stereo unspecified), the Activity stood at 100%.
Turning to `CCOc1cc(Nc2cc(C)nc3ccc4nc[nH]c4c23)c(OCC)cc1Cl`, the Activity stood at 100%.
